The text below walks through data of patent publication EP2949319A1, “PHARMACEUTICAL COMPOSITIONS COMPRISING AN ACTIVE AGENT” (Galenicum Health S.L., priority 2014, dated 2015).

Converted amounts (≈) assume the structure as drawn.

A short description of data set [1]: Dissolution of the active agent in the capsule fill (glycerol monocaprylocaprate, BHT). It counts as physicochemical. Conditions: glycerol monocaprylocaprate and BHT, 20-23 °C, stirred. An excerpt:
Another advantage of the process as herein disclosed is that it is highly reproducible and robust independently of the water content of the active agent. […] However, when the active agent has a water content higher than 0.05% measured by Karl Fischer titration, the components of the fill are completely dissolved at the same range of temperatures. Furthermore, the inventors have been able to establish an optimum range of working temperatures able to obtain a fill solution completely dissolved homogeneously with active agents with a water content higher than 0.05 % w/w.
• Glycerol monocaprylocaprate was added to a stainless steel tank equipped with cooling jacket to keep it at a temperature of 20-23 °C. It was stirred until completely dissolved. • Butylhydroxytoluene (BHT) was added to the tank and stirred until completely dissolved. • Finally dutasteride anhydrous was added to the tank. • The resulting solution was kept at a range of temperature of 20-23 °C. […] Water content of the active agent and the range of temperatures were studied to avoid dissolution problems.

The conditions of data set [2]: cited from earlier work.

In the case of `C[C@]12C=CC(=O)N[C@@H]1CC[C@@H]1[C@@H]2CC[C@]2(C)[C@@H](C(=O)Nc3cc(C(F)(F)F)ccc3C(F)(F)F)CC[C@@H]12` [dutasteride anhydrous, 17-beta-N-[2,5-bis(trifluoromethyl)]phenylcarbamoyl-4-aza-5-alpha-androst-1-en-3-one], the “dissolution in the capsule fill solution” value in data set [1] is reported as “not possible to obtain a completely dissolved solution”.

As for `C[C@]12C=CC(=O)N[C@@H]1CC[C@@H]1[C@@H]2CC[C@]2(C)[C@@H](C(=O)Nc3cc(C(F)(F)F)ccc3C(F)(F)F)CC[C@@H]12` [Dutasteride, 17-beta-N-[2,5-bis(trifluoromethyl)]phenylcarbamoyl-4-aza-5-alpha-androst-1-en-3-one], in data set [2], the solubility in water was 0.38 ng/mL (≈ 0.719 nM).
